From the NIST ThermoML archive (doi:10.1021/je900738e)
± gives the expanded uncertainty stated by the source.

Conditions: Liquid, Manometric method

Structure (SMILES) | vapor or sublimation pressure (283.15 K) [kPa] | vapor or sublimation pressure (293.15 K) [kPa] | vapor or sublimation pressure (303.15 K) [kPa] | vapor or sublimation pressure (313.15 K) [kPa] | vapor or sublimation pressure (323.15 K) [kPa] | vapor or sublimation pressure (333.15 K) [kPa] | vapor or sublimation pressure (343.15 K) [kPa] | vapor or sublimation pressure (346.65 K) [kPa] | vapor or sublimation pressure (287.15 K) [kPa] | vapor or sublimation pressure (296.35 K) [kPa] | vapor or sublimation pressure (305.35 K) [kPa] | vapor or sublimation pressure (313.45 K) [kPa] | vapor or sublimation pressure (323.05 K) [kPa] | vapor or sublimation pressure (332.95 K) [kPa] | vapor or sublimation pressure (343.05 K) [kPa] | vapor or sublimation pressure (352.85 K) [kPa] | vapor or sublimation pressure (363.05 K) [kPa] | vapor or sublimation pressure (372.85 K) [kPa]
OCC(F)(F)F [2,2,2-trifluoroethanol] | 3.96 ± 0.22 | 7.25 ± 0.22 | 12.82 ± 0.23 | 21.83 ± 0.26 | 36.1 ± 0.3 | 57.08 ± 0.38 | 87.31 ± 0.46 | 100.8 ± 0.52 |  |  |  |  |  |  |  |  |  | 
O [water] |  |  |  |  |  |  |  |  | 1.64 ± 0.21 | 2.81 ± 0.22 | 4.74 ± 0.22 | 7.51 ± 0.23 | 12.26 ± 0.26 | 19.69 ± 0.32 | 30.94 ± 0.42 | 46.73 ± 0.57 | 69.75 ± 0.8 | 100.32 ± 1.1
